From paper PMC7576608, “Mechanisms of telomerase inhibition by oxidized and therapeutic dNTPs” (Nature Communications, 2020) come the findings set out here.

In the assay the target is telomerase (Homo sapiens, UniProt O14746). Kind of assay: Telomerase extension of 32P-end labeled primers with a single dNTP (percent primer extension). It is filed as biochemical. Details: made in house; anti-FLAG immunopurification, eluted with 3xFLAG peptide. The note with it: for Percent Primer Extension: 50 μM single dNTP. As to the method: A chain terminating mechanism of inhibition requires that the enzyme adds the modified dNTP to a growing chain, which then blocks further synthesis. […] To test whether telomerase can incorporate other modified dNTPs, and whether the incorporation is chain terminating and/or mutagenic, we conducted direct extension assays in which we radiolabeled the primer and added increasing concentrations (5, 50, and 500 μM) of a single dNTP (Supplementary Figs. 3, 5, 6, and 7). Since modified dNTPs may prefer mispairing, we tested various primers in which the first template base was either rA3, rC1, or rU5 (primer 1, primer 2, and primer 3, respectively), and compared the percent primer extension for each dNTP at the middle 50 μM concentration (Fig. 3). Primers 1 and 2 initiate synthesis at consecutive rA3rA4 or rC1rC2 template bases, respectively, so we could examine both incorporation and extension to the next base. However, the telomerase template lacks tandem rU residues.
Fig. 3 Telomerase insertion of modified dNTPs. Telomerase reactions were conducted with 5 nM ^32P-end labeled primer a Primer 1 (TTAGGG)3, b Primer 2 (GGTTAG)3, or c Primer 3 (AGGGTT)3. Reactions contained cellular-concentration dNTPs (lane 1) or 50 μM of indicated natural dNTP (blue, lanes 2–5), oxidized dNTP (red, lanes 6–8), or therapeutic dNTP (green, lanes 9–11). Products were separated on denaturing gels. […] Letters on the right indicate the template base; P indicates unextended 18-mer primer. Graphs represent the percent of total primers extended. Images are representative of, and data are shown as mean ± s.d. from, three independent experiments. Source data are provided as a Source Data file.
An equal volume of loading buffer (94% formamide, 0.1× TBE, 0.1% bromophenol blue, 0.1% xylene cyanol) was added to the reaction eluent. The samples were heat denatured for 10 min at 100 °C and loaded onto a 14% denaturing acrylamide gel (7 M urea, 1× TBE) and electrophoresed for 90 min at constant 38 W. Samples were imaged using a Typhoon phosphorimager (GE Healthcare). Percent primer extension was calculated with ImageQuant TL 8.2 by measuring the intensity of each product band and dividing by the total radioactivity in the lane or total products, as indicated in the figure legends.
Telomerase reactions were conducted with 5 nM 32P-end labeled primer (a) Primer 1 (TTAGGG)3, (b) Primer 2 (GGTTAG)3, or (c and d) Primer 3 […]
(d) reactions contained 3 µg/µl RNase A. Products were separated on denaturing gels. Letters on the right indicate the template base; P indicates unextended 18-mer primer. Graphs represent the percent of total primers extended for the reactions in panels a – c from one experiment. Panel d is a representative image from three independent experiments. Source data are provided as a Source Data file. […]
Supplementary Fig 4. Time course reactions with telomerase or pol β. (a, b) Telomerase reactions were conducted with 5 nM 32P-end labeled primer (a) Primer 4 (GTTAGG)3 or (b) Primer 2 (GGTTAG)3.
Products were separated on denaturing gels. Letters on the right indicate the template base; P indicates […]
unextended 18-mer primer. […]

telomerase, sequence (O14746 whole entry): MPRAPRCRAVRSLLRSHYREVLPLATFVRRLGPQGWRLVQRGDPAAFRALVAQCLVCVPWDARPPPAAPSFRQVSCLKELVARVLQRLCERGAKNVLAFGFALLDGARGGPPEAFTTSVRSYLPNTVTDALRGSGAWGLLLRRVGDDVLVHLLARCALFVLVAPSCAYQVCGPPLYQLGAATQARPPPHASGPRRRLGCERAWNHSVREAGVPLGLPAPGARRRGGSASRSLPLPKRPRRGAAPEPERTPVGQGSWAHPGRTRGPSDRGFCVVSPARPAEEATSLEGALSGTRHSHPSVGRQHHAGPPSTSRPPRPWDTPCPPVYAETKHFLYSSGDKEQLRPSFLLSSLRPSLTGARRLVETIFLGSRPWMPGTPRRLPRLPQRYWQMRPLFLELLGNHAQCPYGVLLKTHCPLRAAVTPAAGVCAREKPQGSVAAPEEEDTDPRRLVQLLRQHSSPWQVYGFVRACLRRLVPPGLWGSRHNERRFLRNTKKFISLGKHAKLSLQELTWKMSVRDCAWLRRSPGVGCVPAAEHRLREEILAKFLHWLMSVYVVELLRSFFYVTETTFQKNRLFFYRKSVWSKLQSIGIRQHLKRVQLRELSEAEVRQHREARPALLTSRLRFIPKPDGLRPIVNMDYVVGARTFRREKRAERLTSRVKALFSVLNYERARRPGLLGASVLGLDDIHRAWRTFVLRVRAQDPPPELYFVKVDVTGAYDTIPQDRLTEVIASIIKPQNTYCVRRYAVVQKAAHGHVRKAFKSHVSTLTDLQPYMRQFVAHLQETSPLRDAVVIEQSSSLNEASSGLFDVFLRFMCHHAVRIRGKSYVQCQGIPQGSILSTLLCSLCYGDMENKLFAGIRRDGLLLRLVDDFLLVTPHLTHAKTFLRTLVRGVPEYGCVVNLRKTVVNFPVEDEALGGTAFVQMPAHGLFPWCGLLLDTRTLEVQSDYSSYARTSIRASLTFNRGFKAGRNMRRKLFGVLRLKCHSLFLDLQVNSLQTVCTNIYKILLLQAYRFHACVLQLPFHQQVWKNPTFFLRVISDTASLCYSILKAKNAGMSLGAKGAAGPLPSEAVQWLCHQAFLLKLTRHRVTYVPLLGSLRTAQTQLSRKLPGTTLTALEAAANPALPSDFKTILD

As to `O=c1[nH]cnc2c1ncn2C1CCC(COP(=O)(O)OP(=O)(O)OP(=O)(O)O)O1` (stereo not shown) [ddITP], the “Percent Primer Extension” value stood at 1.59% (Primer 1 (TTAGGG)3, first template base rA3, Mean of three experiments); 0.00% (Primer 3 (AGGGTT)3, first template base rU5, Mean of three experiments); 0.00% (Primer 3 (AGGGTT)3, first template base rU5, single experiments n1-n3). Also, the “% Primer Extension” value reads like this: (Primer 1, 5µM dNTP) 3.46%; (Primer 1, 50µM dNTP) 4.29%; (Primer 1, 500µM dNTP) 6.73%; (Primer 2, 5µM dNTP) 0%; (Primer 2, 50µM dNTP) 4.27%; (Primer 2, 500µM dNTP) 5.45%. Also, the “% Primer Extension” value by setting is: (Primer 3, 5µM dNTP) 0%; (Primer 3, 50µM dNTP) 0%; (Primer 3, 500µM dNTP) 0%. Further, the “Chain termination after telomerase insertion (in words)” value (end-labeled primers, single dNTP) was “genuine telomerase chain terminators”.
